Experimental data from patent US20060128681A1, “Novel rho inhibitors” (priority 2002, published 2006).
Where two headings read alike, the source gives them in different places.

Assays:
[1] = target: T1, rho transcription termination factor (Escherichia coli, UniProt P0AG30); details: for rho inhibition at 4000 μM: 4000 μM metal; for IC50: read-out: I50, rho poly(C)-dependent ATP hydrolysis;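 for % activity (Vmax or Vpeak): Poly(C)-dependent ATP hydrolysis by wild-type rho with other divalent metals in place of magnesium, radiolabeled ATP at varied levels, TLC phosphorimaging, initial rates from hydrolyzed ATP versus time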;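 for % efficiency (Vmax/KM or Vpeak/KM): Poly(C)-dependent ATP hydrolysis by wild-type rho with other divalent metals in place of magnesium, radiolabeled ATP at varied levels, TLC phosphorimaging, initial rates from hydrolyzed ATP versus time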;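 for Vmax(app): Poly(C)-dependent ATP hydrolysis by wild-type rho with other divalent metals in place of magnesium, radiolabeled ATP at varied levels, TLC phosphorimaging, initial rates from hydrolyzed ATP versus time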;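 for metal activation profile: Poly(C)-dependent ATP hydrolysis by wild-type rho with other divalent metals in place of magnesium, radiolabeled ATP at varied levels, TLC phosphorimaging, initial rates from hydrolyzed ATP versus time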
Method: Rho poly(C)-dependent ATPase assay. See, generally, Sharp et al., (1983) A kinetic mechanism for the poly(C)-dependent ATPase of the Escherichia coli transcription termination protein, rho, J. Biol. Chem. 258, 3482-3486. The ribonucleotide-stimulated ATPase activity of rho at 32° C. was assayed by the amount of ^32P-labeled inorganic phosphate hydrolyzed from ATP after separation on PEI-TLC plates (prerun with water and dried) using 0.75 M potassium phosphate (pH 3.5) as the mobile phase. Reactions were initiated by adding ATP (varying concentrations) and 0.5 μCi [γ-^32P] ATP to the solution containing 40 mM Tris-HCl (pH 7.9), 50 mM KCl, 100 nM or 250 nM poly(C), 100 or 250 nM rho (monomer) and MgCl2 (1 mM or 10 mM). The TLC plates were exposed to PhosphorImager plates (Fuji and Molecular Dynamics) (3 h), scanned on a Storm 860 PC PhosphorImager and analyzed using Molecular Dynamic's ImageQuant 5.0. The initial rates of the reactions were determined by plotting the amount of ATP hydrolyzed against time. Each reaction was performed in duplicate and the results averaged.
B. Divalent Metal Activation of Rho in the Presence of MgCl2. To provide additional information concerning the roles of divalent metals in rho activation, the poly(C)-dependent assays were repeated in the presence of 10 mM MgCl2 and varying concentrations (10, 20, 40, 80, 125, 160, 250, 320, 500, 640 μM) of the divalent metals.

[2] = target: T1, rho transcription termination factor; details: for Vmax(app) / % activity (Vmax or Vpeak) / % efficiency (Vmax/KM or Vpeak/KM) / Vpeak(app): Mg^2+-free; for Vmax(app) / Vpeak(app): from activation curves; for % activity (Vmax or Vpeak) / % efficiency (Vmax/KM or Vpeak/KM): relative to Mg^2+; for metal activation profile: absence of MgCl2, 1.9-4000 μM metal; for n (Hill): nonlinear regression of velocity curves; for effect on rho poly(C)-dependent ATP hydrolysis in the absence of MgCl2: (DL)DTT-free buffer; for peak velocity / total metal concentration at peak velocity: absence of MgCl2, FIG. 8
Method: Rho poly(C)-dependent ATPase assay. […] The ribonucleotide-stimulated ATPase activity of rho at 32° C. was assayed by the amount of ^32P-labeled inorganic phosphate hydrolyzed from ATP after separation on PEI-TLC plates (prerun with water and dried) using 0.75 M potassium phosphate (pH 3.5) as the mobile phase. Reactions were initiated by adding ATP (varying concentrations) and 0.5 μCi [γ-^32P] ATP to the solution containing 40 mM Tris-HCl (pH 7.9), 50 mM KCl, 100 nM or 250 nM poly(C), 100 or 250 nM rho (monomer) and MgCl2 (1 mM or 10 mM). The TLC plates were exposed to PhosphorImager plates (Fuji and Molecular Dynamics) (3 h), scanned on a Storm 860 PC PhosphorImager and analyzed using Molecular Dynamic's ImageQuant 5.0. The initial rates of the reactions were determined by plotting the amount of ATP hydrolyzed against time. Each reaction was performed in duplicate and the results averaged.
A. Divalent Metal Activation of Rho in the Absence of MgCl2. […] For each metal, wild-type rho was pretreated with 20 mM EDTA to deplete the protein of residual metals and removed the excess EDTA and the metal•EDTA complex by a spin column.

[3] = target: T1, rho transcription termination factor; assay: Rho poly(C)-dependent ATPase assay, inhibition by metal chelates and bicyclomycin; format: biochemical, E. coli; design: made in house; host or cells: E. coli strain AR120 with plasmid p39-ASE; details: (DL)DTT 0.1-0.3 mM alone or equimolar with metal chloride, in presence of MgCl2
Method: Rho poly(C)-dependent ATPase assay.
The reactions were analyzed as described above.

[4] = target: T1, rho transcription termination factor; design: made in house; host or cells: E. coli strain AR120 with plasmid p39-ASE; details: poly(dC)-ribo(C)10 ATPase assay, literature (Magyar 1996); cited from earlier work
E. coli RecA = E. coli RecA (Escherichia coli, UniProt P0A7G6); assay: RecA poly(dT)-dependent ATP hydrolysis; format: biochemical; details: bicyclomycin 0-400 μM; Zn-(L)DTT equimolar
Method: The validity of some of these new leads has been questioned, and attention is now focused on determining the inhibition pathway for these compounds and whether the inhibitors show enzyme specificity. McGovern et al., (2001) A common mechanism underlying promiscuous inhibitors from virtual and high-throughput screening, J. Med. Chem. 45, 1712-1722. Compounds that show nonspecific interaction have been defined as “promiscuous inhibitors.” The inhibitor specificity of Zn-(L)DTT complexes was tested. […] Next, the time dependency for chelate inhibition was examined because a well-behaved, reversible inhibitor is typically not affected by incubation time. McGovern et al., (2001). […] The effect of Zn-(L)DTT solutions on E. coli RecA poly (dT)-dependent ATP hydrolysis was determined.

T1 sequence (P0AG30 whole entry): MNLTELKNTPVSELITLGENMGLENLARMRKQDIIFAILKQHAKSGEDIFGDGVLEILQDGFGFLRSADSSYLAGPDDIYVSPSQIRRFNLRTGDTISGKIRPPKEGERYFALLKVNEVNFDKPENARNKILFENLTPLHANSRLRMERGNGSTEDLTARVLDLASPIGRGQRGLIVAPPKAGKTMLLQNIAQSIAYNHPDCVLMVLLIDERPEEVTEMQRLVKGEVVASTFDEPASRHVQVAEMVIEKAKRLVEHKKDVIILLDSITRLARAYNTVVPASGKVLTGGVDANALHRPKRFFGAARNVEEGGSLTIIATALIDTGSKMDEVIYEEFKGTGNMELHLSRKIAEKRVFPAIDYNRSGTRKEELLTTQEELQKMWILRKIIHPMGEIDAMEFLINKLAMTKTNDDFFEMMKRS
Sequence of E. coli RecA (P0A7G6 2-353): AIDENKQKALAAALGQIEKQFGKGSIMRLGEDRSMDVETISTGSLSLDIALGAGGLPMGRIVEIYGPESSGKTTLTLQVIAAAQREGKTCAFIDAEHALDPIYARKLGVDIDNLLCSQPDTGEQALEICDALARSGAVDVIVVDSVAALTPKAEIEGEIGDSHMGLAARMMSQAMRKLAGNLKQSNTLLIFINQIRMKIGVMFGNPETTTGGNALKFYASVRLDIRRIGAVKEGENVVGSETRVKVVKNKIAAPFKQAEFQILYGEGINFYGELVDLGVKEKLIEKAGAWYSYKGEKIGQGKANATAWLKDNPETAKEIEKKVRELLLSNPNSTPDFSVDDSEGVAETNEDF

| Compound | effect on ATP hydrolysis rate in the presence of MgCl2 ([1]; 10 mM MgCl2) | Vmax(app) [2] | % activity (Vmax or Vpeak) [2] | % efficiency (Vmax/KM or Vpeak/KM) [2] | metal activation profile [2] | n (Hill) [2] | also measured |
| --- | --- | --- | --- | --- | --- | --- | --- |
| [Ca+2] [Ca^2+] | negligible effects | 3.13 mol/min/mg | 25% | 74% | Michaelis-Menten kinetics | 1 |  |
| [Co+2] [Co^2+] | negligible effects | 7.65 mol/min/mg | 62% | 61% | Michaelis-Menten kinetics | 1 |  |
| [O]=[V+2] [VO^2+] | negligible effects | 0.78 mol/min/mg | 6% |  | Michaelis-Menten kinetics | 1 |  |
| [Sr+2] [Sr^2+] | negligible effects | 0.17 mol/min/mg | 1% |  | did not catalyze ATP hydrolysis | 1 |  |
| [Cl-].[Cl-].[Zn+2] [Zn^2+] | inhibited |  | 81% | 51% | peak velocities | 5.5 | rho inhibition at 4000 μM ([1]; 10 mM MgCl2): ~50%; change of I50 on 10-fold poly(C) ([1]; poly(C) concentration increased 10-fold): increased only slightly; IC50 ([1]; 1 mM MgCl2, estimated): 190 µM; IC50 ([1]; 10 mM MgCl2): 4000 µM; activity remaining at 190 μM total metal ([2]; 190 μM [Zn^2+]total): 50%; velocity at 1000 μM total metal ([2]; 1000 μM [Zn^2+]total): zero; effect on rho poly(C)-dependent ATP hydrolysis in the absence of MgCl2 [2]: activated; Vpeak(app) [2]: 9.98 mol/min/mg; peak velocity [2]: 9.4 µmol/min/mg; total metal concentration at peak velocity [2]: 125 µM; IC50 ([2]; read-out: I50, rho poly(C)-dependent ATP hydrolysis, 0 mM MgCl2, estimated): 190 µM |
| [Cl][Mn][Cl] [Mn^2+] |  |  | 97% | 89% | peak velocities | 1 | efficiency (Vmax/KM or Vpeak/KM) relative to Co^2+ [2]: 1.6 times; % of maximum activity at 4000 μM ([2]; 4000 μM total metal): 10%; effect on rho poly(C)-dependent ATP hydrolysis in the absence of MgCl2 [2]: activated; Vpeak(app) [2]: 11.9 mol/min/mg; peak velocity [2]: 11.9 µmol/min/mg; total metal concentration at peak velocity [2]: 250 µM |
| [Cd+2] [Cd^2+] | negligible effects |  | 39% | 20% | peak velocities | 4.6 | effect on rho poly(C)-dependent ATP hydrolysis in the absence of MgCl2 [2]: activated; Vpeak(app) [2]: 4.74 mol/min/mg; peak velocity [2]: 4.8 µmol/min/mg; total metal concentration at peak velocity [2]: 65 µM |
| [Be+2].[Cl-].[Cl-] [Be^2+] | inhibited | 0.21 mol/min/mg | 2% |  | did not catalyze ATP hydrolysis |  | activity at 100 μM ([1]; 100 μM BeCl2, 10 mM MgCl2): almost complete loss of activity; IC50 ([1]; 10 mM MgCl2): 63 µM |
| [Hg+2] [Hg^2+] | inhibited | 0.78 mol/min/mg | 6% | 29% | Michaelis-Menten kinetics | 1 | rho inhibition at 4000 μM ([1]; 10 mM MgCl2): ~50% |
| [Cl][Ni][Cl] [Ni^2+] | negligible effects | 4.79 mol/min/mg | 39% | 29% | sigmoidal activation pattern | 2.9 | effect on rho poly(C)-dependent ATP hydrolysis in the absence of MgCl2 [2]: activated |
| OC(CS)C(O)CS (racemic) [(DL)DTT, dithiothreitol] |  |  |  |  |  |  | effect on rho poly(C)-dependent ATP hydrolysis [3]: did not inactivate the enzyme |
| [Mg+2] [Mg^2+] |  | 12.3 mol/min/mg | 100% | 100% | Michaelis-Menten kinetics | 1 | efficiency (Vmax/KM or Vpeak/KM) relative to Co^2+ [2]: 1.5 times |
| C=C1CCO[C@]2([C@@H](O)[C@@](C)(O)CO)NC(=O)[C@@]1(O)NC2=O [bicyclomycin, Bicyclomycin] |  |  |  |  |  |  | inhibition kinetics with respect to ribo(C)10 [4]: mixed inhibition pattern; effect on RecA poly(dT)-dependent ATP hydrolysis (E. coli RecA): no loss in RecA ATPase activity |
| [Cu+2] [Cu^2+] | inhibited | 1.54 mol/min/mg | 13% | 39% | Michaelis-Menten kinetics | 1 | loss of activity ([1]; 10 mM MgCl2): ~30% |
